Test results as given in paper PMC8443589, “Modelling human liver fibrosis in the context of non-alcoholic steatohepatitis using a microphysiological system” (Communications Biology, 2021).
Several values for one entry are separate records, joined by “and”; a condition that tells them apart may be missing. Identical values can stand only once.

Experiments:
[1] = tested on: liver MPS NASH model (PHH, KC and HSC co-cultures, high fat); assay: Fibrosis gene expression (Human Fibrosis RT2 Profiler PCR Arrays) in liver MPS NASH model dosed with OCA or ELF; assay type: cell-based; settings: 10 days, individual cultures
Description: Fig. 3 Obeticholic acid and Elafibranor both modulate inflammatory and fibrosis phenotype in liver MPS NASH model and phenotype can additionally be reversed with dietary changes. PHH, KC and HSC co-cultures were cultured in the MPS platform under high fat conditions and dosed with varying concentrations of Obeticholic acid (OCA) and Elafibranor (ELF) QD or vehicle control (control) for 10 days, following an initial 4-day pre-culture phase. a The secreted cytokine profile from liver microtissues was compared by Luminex to determine the effects of each compound on the inflammatory profile of the liver with samples analysed at day 8 and 14 of the culture. Data were normalised by Z-transformation to allow comparison of all analytes and presented as a heatmap. b The expression of fibrosis-associated genes was analysed in total RNA from control, OCA and ELF treated liver microtissues (highest concentration for each compound) using Human Fibrosis RT2 Profiler PCR Arrays. Gene expression changes are expressed as a fold change over control. c Liver microtissues were stained for collagen-type I, α-SMA, nuclei (DAPI - blue), phalloidin (green) and imaged by confocal microscopy. Representative images are shown and scale bars 200 µm. d Staining of microtissue was quantified by measuring total fluorescence intensity throughout individual microtissues, each data point represents an average of all the microtissues imaged within an MPS scaffold (min 8, max 20 microtissues). e PHH, KC and HSC co-cultures were cultured in the MPS platform under high fat or lean conditions for 30 days. Cultures either remained in the same type of media throughout or were switched at day 15 from fat media to lean media (Fat -> Lean). Cell culture medium samples were analysed for the presence of IL-6, f MCP-1, g TIMP-1, which were measured by ELISA. h Microtissues were stained with Oil-Red O to determine fat loading during culture period, total stain was quantified by absorbance at 510 nm. All datapoints shown, either as box-whisker plots highlighting mean and min-max or with error bars highlighting means ± SD. All data from a minimum of three independent cultures; statistical comparisons made to control samples unless other comparison shown.
Total RNA was extracted from liver microtissue-containing scaffolds using TRIzol® Reagent (Ambion, USA) and a chloroform phase separation. RNA was precipitated from aqueous phase samples using 100% isopropanol and RNA pellets were resuspended in dH2O. Samples were analysed by both QPCR and RNAseq. For QPCR, reverse transcription and PCR were performed using RT2 First Strand Kit and Human Fibrosis RT² Profiler™ PCR Arrays (PAHS-120Z) (Qiagen, UK), with samples analysed on a Quantstudio 6 Real-Time PCR System (Applied Biosystems, UK). Ct values from samples were compared and normalised to house-keeping gene expression. The fold-change in each transcript represented on the array plate was determined using RT2 Profiler™ PCR Array Data Analysis (v. 3.5) Web Portal (Qiagen, UK).
Liver microtissues were cultured for 4 days in HEP-FAT medium, before dosing with obeticholic acid or elafibranor. Both compounds were dissolved in DMSO, diluted in cell culture medium (final DMSO concentration ≤1%) and added to microtissues during a full medium change every two days and in addition on the intervening days compounds were spiked into the media to increase drug concentration back to desired concentrations. Cultures were maintained in the presence of the compound, for a total of 10 days in the presence or absence of TGFβ.

[2] = Protein binding in HEP-Fat cell culture media by rapid equilibrium dialysis; assay type: in vitro ADME; settings: for fraction unbound: HEP-Fat cell culture media, HEP-FAT media, rapid-equilibrium dialysis
Description: Despite many on-going clinical trials, there is still no approved treatment for NASH, but emerging data provide confidence that NASH is a pharmacologically responsive disease. […] First, we set out to determine an optimal dosing strategy for each of the treatments based on an assessment of their physicochemical properties and pharmacokinetic behaviour within the MPS device (Table 1). Non-specific binding to the MPS device was determined after a 72 h incubation with each candidate drug at 1 μM (Table 1). Both candidate drugs were calculated to have less than 0.1% loss as a consequence of non-specific binding to the MPS device (Table 1). […] Because the hepatocytes within the MPS device are metabolically competent, we evaluated the half-life for each candidate drug in NASH microtissues.
To determine the metabolic turnover of obeticholic acid and elafibranor in the MPS platform, both compounds were incubated with liver microtissues for 48 h starting at 1 µM and media samples taken at regular intervals (AdooQ Bioscience, UK). The presence of each compound in the cell culture medium was quantified by liquid chromatography-tandem mass spectrometry (LC-MS/MS). Samples were separated using a Waters Acquity UPLC system with an ACE Excel C18-AR column and analysed on a Waters TQ-S Micro mass spectrometer against quantitative standard curves. Both compounds were also assessed for protein binding in HEP-Fat media using rapid equilibrium dialysis (RED) and quantified using the same LC-MS/MS methodology.

fraction unbound [2]	Protein binding within the fat culture medium [2]	SMILES	CCL2 relative gene expression compared to GAPDH housekeeping gene ([1]; 65.0 uM ELF, listed as ELF)	CCL3 relative gene expression compared to GAPDH housekeeping gene ([1]; 65.0 uM ELF, listed as ELF)	CCL11 relative gene expression compared to GAPDH housekeeping gene ([1]; 65.0 uM ELF, listed as ELF)	CEBPB relative gene expression compared to GAPDH housekeeping gene ([1]; 65.0 uM ELF, listed as ELF)	CXCR4 relative gene expression compared to GAPDH housekeeping gene ([1]; 65.0 uM ELF, listed as ELF)	DCN relative gene expression compared to GAPDH housekeeping gene ([1]; 65.0 uM ELF, listed as ELF)	HGF relative gene expression compared to GAPDH housekeeping gene ([1]; 65.0 uM ELF, listed as ELF)	MMP1 relative gene expression compared to GAPDH housekeeping gene ([1]; 65.0 uM ELF, listed as ELF)	MMP9 relative gene expression compared to GAPDH housekeeping gene ([1]; 65.0 uM ELF, listed as ELF)	CCL2 relative gene expression compared to GAPDH housekeeping gene ([1]; 12.5 uM OCA, listed as OCA)	CCL3 relative gene expression compared to GAPDH housekeeping gene ([1]; 12.5 uM OCA, listed as OCA)	CCL11 relative gene expression compared to GAPDH housekeeping gene ([1]; 12.5 uM OCA, listed as OCA)	CEBPB relative gene expression compared to GAPDH housekeeping gene ([1]; 12.5 uM OCA, listed as OCA)	CXCR4 relative gene expression compared to GAPDH housekeeping gene ([1]; 12.5 uM OCA, listed as OCA)	DCN relative gene expression compared to GAPDH housekeeping gene ([1]; 12.5 uM OCA, listed as OCA)	HGF relative gene expression compared to GAPDH housekeeping gene ([1]; 12.5 uM OCA, listed as OCA)	MMP1 relative gene expression compared to GAPDH housekeeping gene ([1]; 12.5 uM OCA, listed as OCA)	MMP9 relative gene expression compared to GAPDH housekeeping gene ([1]; 12.5 uM OCA, listed as OCA)
0.02	highly protein-bound	CSc1ccc(C(=O)/C=C/c2cc(C)c(OC(C)(C)C(=O)O)c(C)c2)cc1 [Elafibranor]	3.92e-9 and 2.6e-9 and 6.31e-9	3.39e-10 and 1.55e-10 and 3.45e-10	4.99e-10 and 6.3e-10 and 6.52e-10	1.2e-8 and 1.1e-8 and 2.65e-8	1.13e-9 and 7.47e-10 and 1.7e-9	2.4e-7 and 1.65e-7 and 3.13e-7	6.26e-10 and 2.45e-10 and 6.68e-10	2.95e-9 and 8.23e-10 and 3.25e-9	1.04e-8 and 2.47e-9 and 9.28e-9	–	–	–	–	–	–	–	–	–
< 0.01	highly protein-bound	CC[C@H]1[C@@H](O)[C@@H]2[C@H](CC[C@]3(C)[C@@H]([C@H](C)CCC(=O)O)CC[C@@H]23)[C@@]2(C)CC[C@@H](O)C[C@@H]12 [Obeticholic acid]	–	–	–	–	–	–	–	–	–	5.71e-9 and 9.72e-9 and 5e-9	1.11e-9 and 5.96e-10 and 3.11e-10	3.39e-10 and 4.66e-10 and 1.94e-10	3e-8 and 1.33e-8 and 1.62e-8	2.04e-9 and 8.2e-10 and 6.3e-10	3.44e-7 and 1.39e-7 and 1.03e-7	1.68e-9 and 5.3e-10 and 3.89e-10	9.31e-10 and 1.58e-9 and 2.05e-9	1.47e-8 and 5.79e-9 and 3e-9
